Assay results taken from ChEMBL document CHEMBL4431373, “Investigation of Proposed Activity of Clarithromycin at GABAA Receptors Using [(11)C]Flumazenil PET” (ACS Med Chem Lett, 2016).
Activity calls are given as the source filed them. No cut-off for these calls is given here.

Assays:
[1] = target: T1, GABA-A receptor; anion channel (Homo sapiens) (UniProt P14867+P47870+P18507+P28472+P48169+Q99928+Q9UN88+P34903+O00591+O14764+Q8N1C3+P18505+P78334+P47869+P31644+Q16445); assay: Negative allosteric modulation of GABA-A receptor (unknown origin) at 3 uM by whole cell patch clamp assay
Rhesus monkey [2] = assay: In vivo displacement of [11C]FMZ from rhesus monkey GABA-A receptor at 3.5 mg/kg, iv after 50 to 90 mins by PET analysis; assay type: functional, organism-based; conditions: Macaca mulatta
Rhesus monkey [3] = assay: In vivo displacement of [11C]FMZ from rhesus monkey GABA-A receptor assessed as late distribution volume ratio to early distribution volume ratio of […] at 3.5 mg/kg, iv by Logan plot analysis (reference value: 115 to 121 %); assay type: functional, Macaca mulatta
Rhesus monkey [4] = assay: In vivo displacement of [11C]FMZ from rhesus monkey GABA-A receptor assessed late distribution volume ratio to early distribution volume ratio of […] at 7 mg/kg, iv by Logan plot analysis (reference value: 115 to 121 %); assay type: functional, Macaca mulatta
Rhesus monkey [5] = assay: In vivo displacement of [11C]FMZ from rhesus monkey GABA-A receptor at 7 mg/kg, iv after 50 to 90 mins by PET analysis; assay type: functional, organism-based; conditions: Macaca mulatta
[6] = target: T1, GABA-A receptor; anion channel (Homo sapiens); assay: Negative allosteric modulation of GABA-A receptor (unknown origin) at 300 uM by whole cell patch clamp assay
[7] = target: GABA-A receptor; anion channel (Rattus norvegicus) (UniProt O09028+P15431+P18506+P18508+P19969+P20236+P23574+P23576+P28471+P28473+P30191+P62813+P63079+P63138+Q91ZM7+Q9ES14); conditions: Brain, 10 uM
Description: Displacement of [3H]FMZ from GABA-A receptor in rat brain at 10 uM preincubated for 30 mins followed by FMZ addition measured up to 16 mins

[8] = target: GABA-A receptor; anion channel; assay: Displacement of [3H]FMZ from GABA-A receptor in rat brain after 30 mins by autoradiography; assay type: tissue-based
Rhesus monkey [9] = assay: In vivo displacement of [11C]FMZ from rhesus monkey GABA-A receptor at 0.5 mg/kg, iv after 50 to 90 mins by PET analysis; assay type: functional, organism-based; conditions: Macaca mulatta

**Q.** `CC[C@H]1OC(=O)[C@H](C)[C@@H](O[C@H]2C[C@@](C)(OC)[C@@H](O)[C@H](C)O2)[C@H](C)[C@@H](O[C@@H]2O[C@H](C)C[C@H](N(C)C)[C@H]2O)[C@](C)(OC)C[C@@H](C)C(=O)[C@H](C)[C@@H](O)[C@]1(C)O` [CLARITHROMYCIN] was tested. Which inhibition [1] did it give?
**A.** The inhibition was 18%.

**Q.** What about the inhibition (Rhesus monkey [2]) of the same compound?
**A.** The inhibition was “inactive”.

**Q.** And the Activity (Rhesus monkey [3])?
**A.** The Activity was 108 - 131%.

**Q.** What about the Activity (Rhesus monkey [4]) of the same compound?
**A.** The Activity was 89 - 186%.

**Q.** What about the inhibition (Rhesus monkey [5]) of the same compound?
**A.** The inhibition was “inactive”.

**Q.** And the inhibition [6]?
**A.** Its inhibition is 45%.

**Q.** What about the inhibition [7] of the same compound?
**A.** Its inhibition is “inactive”.

**Q.** What about the Ki [8] of the same compound?
**A.** Its Ki is > 10 µM.

**Q.** Which Activity (Rhesus monkey [9]) does the source give for `CCOC(=O)c1ncn2c1CN(C)C(=O)c1cc(F)ccc1-2` here?
**A.** Its Activity is “Active”.
